Source: publication PMC3811480, “The R Enantiomer of the Antitubercular Drug PA-824 as a Potential Oral Treatment for Visceral Leishmaniasis” (Antimicrobial Agents and Chemotherapy, 2013)
Several values for one entry are separate records, joined by “and”; a condition that tells them apart may be missing. Identical values can stand only once. Entries after “also recorded” stand apart in the source; their conditions may differ. Like-named read-outs stand apart in the source and are kept apart here.

Assays:
[1] = system: L. donovani intracellular amastigotes in mouse peritoneal macrophages; assay: In-macrophage drug sensitivity assay; assay type: cell-based, Leishmania donovani; conditions: for EC50: L. donovani amastigote (in macrophage); for activity against L. donovani intracellular amastigotes: highest concentration tested 50 μM
[2] = system: promastigotes of the LdBOB strain of L. donovani; assay: Drug combination studies (fixed-ratio isobologram, 72 h); assay type: cell-based, Leishmania donovani; conditions: for EC50: Leishmania donovani, compound alone, duplicate cultures, read-out: Absolute EC50
Protocol: The EC50s of each combination were determined after 72 h and plotted as an isobologram ([23]).

[3] = system: Transgenic LdBOB promastigotes expressing the Leishmania major nitroreductase (LmjF.05.0660); assay: microbe, parasite or virus in culture; assay type: cell-based, Leishmania donovani; conditions: for EC50: Leishmania major, read-out: EC50 against NTR-overexpressing promastigotes
[4] = mouse liver microsomes, 0.5 μM compound
[5] = system: Trypanosoma cruzi Silvio-X10/7 clone A1 epimastigotes; assay: In vitro drug sensitivity assay, T. cruzi epimastigotes (72 h, resazurin); assay type: cell-based; conditions: T. cruzi epimastigote
HepG2 cells = assay: HepG2 counterscreen (resazurin); assay type: cell-based; conditions: Homo sapiens; Mammalian (HepG2); n = 2
[6] = Tolerability in mice during the efficacy study; assay type: in vivo, BALB/c mice; conditions: 30 or 100 mg kg^−1 orally twice daily for 5 days
Protocol: All animal experiments were approved by the University Ethical Review Committee and performed under the Animals (Scientific Procedures) Act 1986 in accordance with the European Communities Council Directive (86/609/EEC). Groups of female BALB/c mice (5 per group) were inoculated intravenously with approximately 2 × 10^7 L. donovani amastigotes (LV9; WHO designation MHOM/ET/67/HU3) harvested from the spleen of an infected hamster ([24]). […] Drug dosing solutions were prepared fresh each day, and the vehicle for both enantiomers of PA-824 was 10% (vol/vol) dimethyl sulfoxide (DMSO), 40% polyethylene glycol 400, and 50% deionized water. On day 14 postinfection, all animals were humanely euthanized and parasite burdens were determined by counting the number of amastigotes/500 liver cells ([11]). Parasite burden is expressed in Leishmania donovani units (LDU), mean number of amastigotes per liver cell × mg weight of liver ([25]).

[7] = system: Mycobacterium tuberculosis; design: method as in PMID 22023140; conditions: cited from earlier work
[8] = Exposure in mice after acute oral dosing (blood levels, UPLC-MS/MS); assay type: in vivo, BALB/c mice; conditions: for half-life: read-out: elimination half-life (t1/2) (converted); for Tmax: read-out: time of maximum concentration in blood
Protocol: The R and S enantiomers of PA-824 (50 mg kg^−1) were orally administered to BALB/c mice. Blood samples (10 μl) were collected from the tail vein of each animal into sample storage tubes (Micronic BV) containing deionized water (20 μl) at defined intervals postdose and stored at −80°C until analysis. The level of each enantiomer in mouse blood was determined by UPLC-MS/MS ([20]).

[9] = system: Leishmania donovani LdBOB promastigotes; assay: In vitro drug sensitivity assay, L. donovani promastigotes (72 h, resazurin); assay type: cell-based; conditions: for EC50: Leishmania donovani; for activity against L. donovani promastigotes: highest concentration tested 50 μM
in vitro = conditions: mouse, plasma
[10] = system: L. donovani amastigotes (LV9); assay: In vivo drug sensitivity, mouse model of visceral leishmaniasis (liver parasite burden); design: species or system Leishmania donovani; conditions: for suppression of infection (liver parasite burden) compared to untreated controls / suppression of infection (liver parasite burden): BALB/c mice; for suppression of infection (liver parasite burden) compared to untreated controls: 30 mg kg^−1 orally twice daily for 5 days
[11] = system: T. cruzi amastigotes in Vero cells; assay: In-Vero-cell T. cruzi drug sensitivity assay (72 h, high-content imaging); assay type: cell-based; conditions: Trypanosoma cruzi; T. cruzi amastigote (in Vero cell)
[12] = system: Trypanosoma brucei brucei S427 29-13 procyclic trypomastigotes; assay: In vitro drug sensitivity assay, T. brucei procyclics (72 h, resazurin); assay type: cell-based
LdBOB promastigotes = assay: PA-824-mediated cell killing (time to kill, wash-out viability); assay type: cell-based, Leishmania donovani; conditions: 10 times EC50, promastigotes
[13] = system: T. brucei bloodstream forms (S427 Single Marker); assay: In vitro drug sensitivity assay, bloodstream-form T. brucei; assay type: cell-based; conditions: Trypanosoma brucei
[14] = mouse PPB, equilibrium dialysis
[15] = system: T. brucei bloodstream forms (S427 Single Marker); conditions: previously determined value; cited from earlier work
[16] = system: L. donovani intracellular amastigotes in mouse peritoneal macrophages; conditions: comparator value, earlier work of the authors; cited from earlier work
[17] = system: lab-generated strains of nifurtimox-resistant T. brucei; conditions: cited from earlier work
[18] = Leishmania donovani, Peritoneal macrophage
[19] = Leishmania donovani, Peritoneal macrophage, L. donovani in macrophages, from EC50 and Hill slope, read-out: EC90
[20] = fixed-ratio isobologram, promastigotes
[21] = BALB/c, mouse, whole blood, 50 mg kg^−1 oral
[22] = L. donovani promastigote, read-out: EC50
[23] = 100 mg kg^−1 orally twice daily for 5 days
[24] = WT LdBOB promastigotes, nitroreductase experiment (Fig. 2), read-out: EC50 against wild-type (WT) promastigotes

O=[N+]([O-])c1cn2c(n1)OC[C@H](OCc1ccc(OC(F)(F)F)cc1)C2 [(R)-PA-824]
EC50 [1]: 0.93 ± 0.06 µM
EC50 [1, 18]: 0.9 ± 0.1 µM
EC90 [1, 19]: 3.4 µM
EC90 ([1]; Leishmania donovani, Peritoneal macrophage, not adjusted for plasma protein binding, read-out: EC90 (equivalent mass concentration)): 1.2 µg/mL
EC50 ([2]; Fig. 3A experiment): 0.18 µM
EC50 ([2]; Fig. 3B experiment): 0.1 µM
interaction in combination with (S)-PA-824 [2, 20]: mild antagonistic behavior; also recorded: progressively more antagonistic; also recorded: mildly antagonistic
interaction in combination with fexinidazole sulfone [2, 20]: act additively; also recorded: additive effect
EC50 [3]: 0.11 ± 0.005 µM
CLint [4]: 0.65 mL/min/g
EC50 [5]: 0.7 ± 0.08 µM
EC50 (HepG2 cells): > 50 µM
tolerability in mice [6]: extremely well tolerated
solubility (physchem): > 250 µM
MIC [7]: > 100 µM
oral bioavailability [8]: orally bioavailable
maximum concentration in blood ([8]; 50 mg kg^−1 oral): 10,500 ng ml^−1
half-life [8, 21]: ~2 h
Tmax [8, 21]: 4 h
EC50 [9, 22]: 0.16 ± 0.03 µM
fraction unbound (in vitro): 0.22
suppression of infection (liver parasite burden) compared to untreated controls [10]: approximately 35%
suppression of infection (liver parasite burden) [10, 23]: > 99% and 99.9%
EC50 [11]: 4.4 ± 0.5 µM
EC50 [12]: 25 ± 0.2 µM
cytocidal or cytostatic (LdBOB promastigotes): leishmanicidal rather than cytostatic; also recorded: cytocidal rather than cytostatic
time after which cell numbers begin to decline (LdBOB promastigotes): 12 h
time at which no intact/live parasites remain (LdBOB promastigotes): 24 h
EC50 [13]: 14.9 ± 0.7 µM

FC(F)(F)Oc1ccc(CO[C@H]2COc3nccn3C2)cc1 [(R)-des-nitro-PA-824]
activity against L. donovani intracellular amastigotes [1]: inactive
activity against L. donovani promastigotes [9]: inactive
fraction unbound (plasma protein binding) [14]: 0.45

O=[N+]([O-])c1cn2c(n1)OC[C@@H](OCc1ccc(OC(F)(F)F)cc1)C2 [(S)-PA-824, reference compound]
EC50 [1]: 4.92 ± 0.3 µM
EC50 [1, 18]: 4.9 ± 0.3 µM
EC90 [1, 19]: 22 µM
EC50 ([2]; Fig. 3B experiment): 0.74 µM
EC50 [3]: 0.8 ± 0.04 µM
CLint [4]: 1.6 mL/min/g
EC50 [5]: 3.4 ± 0.03 µM
EC50 (HepG2 cells): > 50 µM
tolerability in mice [6]: extremely well tolerated
solubility (physchem): > 250 µM
oral bioavailability [8]: orally bioavailable
maximum concentration in blood ([8]; 50 mg kg^−1 oral): 11,600 ng ml^−1
concentration at 24 h ([8]; BALB/c, mouse, whole blood, 50 mg kg^−1 oral, 24 h): 900 ng/mL
half-life [8, 21]: ~5 h
Tmax [8, 21]: 4 h
EC50 [9, 22]: 0.9 ± 0.1 µM
EC50 [9, 24]: 0.96 ± 0.02 µM
fraction unbound (in vitro): 0.21
EC50 [15]: 37.8 ± 3.2 µM
suppression of infection (liver parasite burden) compared to untreated controls [10]: approximately 35%
suppression of infection (liver parasite burden) [10, 23]: comparable to those seen in drug-free animals; also recorded: less efficacious
dose dependence of leishmanicidal effect ([10]; earlier in vivo study, range of doses down to 0.4 mg kg^−1, twice daily orally (Fig. S1)): apparent absence of a dose-dependent leishmanicidal effect
EC50 [11]: > 30 µM
EC50 [12]: 36.5 ± 2.5 µM
cytocidal or cytostatic (LdBOB promastigotes): leishmanicidal rather than cytostatic
time after which cell numbers begin to decline (LdBOB promastigotes): 12 h
time at which no intact/live parasites remain (LdBOB promastigotes): 36 h

FC(F)(F)Oc1ccc(CO[C@@H]2COc3nccn3C2)cc1 [(S)-des-nitro-PA-824]
activity against L. donovani intracellular amastigotes [1]: inactive
activity against L. donovani promastigotes [9]: inactive

Cn1c([N+](=O)[O-])cnc1COc1ccc(S(C)(=O)=O)cc1 [fexinidazole sulfone, reference compound]
EC50 ([2]; Fig. 3A experiment): 8.8 µM
EC50 [16]: 5.3 µM

CSc1ccc(OCc2ncc([N+](=O)[O-])n2C)cc1 [fexinidazole]
sensitivity of nifurtimox-resistant T. brucei [17]: cross resistant

CCCCCCCCCCCCCCCCOP(=O)([O-])OCC[N+](C)(C)C [miltefosine]
suppression of infection (liver parasite burden) ([10]; 12 mg kg^−1 orally once daily for 5 days): 68.7%

CC1CS(=O)(=O)CCN1/N=C/c1ccc([N+](=O)[O-])o1 (stereo not drawn) [nifurtimox]
EC50 [3]: 0.2 ± 0.09 µM
increase in sensitivity of nitroreductase-overexpressing parasites ([3]; transgenic versus wild-type): 26 fold
EC50 [9, 24]: 5.6 ± 0.16 µM

O.O.O.O.O.O.O.O.O.O=C([O-])[C@@H]1[O][Sb](=[O])([O][Sb]2(=[O])[O][C@H]([C@H](O)CO)[C@H](O)[C@H](C(=O)[O-])[O]2)[O][C@H]([C@H](O)CO)[C@@H]1O.[Na+].[Na+].[Na+] (stereo partly drawn) [sodium stibogluconate]
suppression of infection (liver parasite burden) ([10]; 15 mg kg^−1 subcutaneously once daily for 5 days): 41.9%
